“And” between values parts separate entries of the source, which are not always exact repeats. Identical values can stand only once.
Assays:
[1] = test system: Rattus norvegicus; settings: for LD50: acute
[2] = test system: Oryctolagus sp.; settings: acute; dermal
[3] = test system: Rattus norvegicus; settings: for LEL: uterotrophic, Active
[4] = test system: Mus musculus; settings: uterotrophic, Active
[5] = test system: Canidae; settings: chronic, duration: 2 years, oral, diet, M/F, Dog Other
[6] = test system: Canidae; settings: chronic, oral, diet, Dog Other
[7] = test system: Rattus norvegicus; settings: oral
[8] = test system: Rattus norvegicus; settings: oral; remark: listed apart in the source
[9] = test system: Rattus norvegicus; settings: repeat dose other; oral
[10] = test system: Rattus norvegicus; settings: subchronic
[11] = test system: Mus musculus; settings: repeat dose other; oral
[12] = test system: Mus musculus; settings: for LD50: acute; for LOAEL / NOAEL: gavage; for LOAEL / NOAEL / NOAEL (% diet) / LOAEL (% diet): CD1; for NOAEL (% diet) / LOAEL (% diet): duration: 105 days, drinking water
[13] = test system: Rattus norvegicus; settings: oral; remark: listed apart in the source
[14] = subchronic, duration: 3 months, oral, diet, BOR/WISW (SPF Cpb)
[15] = duration: 1 days, injection, subcutaneous
[16] = duration: 2 days, injection, subcutaneous
[17] = increased hemosiderin deposition, serum alkaline phosphatase, and liver weight (females)
[18] = duration: 3 days, injection, subcutaneous
[19] = duration: 7 days, injection, subcutaneous
[20] = duration: 3 days, injection, intraperitoneal
[21] = developmental, duration: 19 days, inhalation, Sprague-Dawley
[22] = reproduction developmental, duration: 19 days, inhalation, F, Sprague-Dawley
[23] = reproduction developmental, duration: 55 days, oral, diet, generation: F0
[24] = reproduction developmental, duration: 112 days, oral, diet, generation: F0
[25] = reproduction developmental, duration: 112 days, oral, diet, generation: F1
[26] = reproduction developmental, oral, generation: F1
[27] = reproduction developmental, oral, F

Q: What does the source list for CC(C)(C)CC(C)(C)c1ccc(O)cc1 [4-(1,1,3,3-Tetramethylbutyl)phenol]?
A: LD50 ([1]; oral): 2200 mg/kg; LD50 ([1]; oral, Sprague-Dawley): > 2000 mg/kg; NOAEL ([1]; reproduction developmental, oral, diet, Sprague-Dawley): ≥ 2000 ppm; NOAEL ([1]; reproduction developmental, oral, diet, Sprague-Dawley, generation: F0): 200 ppm; NOAEL ([1]; reproduction developmental, oral, diet, Sprague-Dawley, generation: F1): 200 ppm; LOAEL [1, 14]: 28.8 mg/kg-day; NOAEL [1, 14]: 2.88 mg/kg-day; LD50 [2]: > 2000 mg/kg; LEL [3, 15]: 200 mg/kg-day and 600 mg/kg-day; LEL [3, 16]: 50 mg/kg-day; LEL ([3]; duration: 14 days, injection, subcutaneous): 25 mg/kg-day; LEL ([4]; duration: 9 days, injection, subcutaneous): 50 mg/kg-day

Q: Which LOAEL [5, 17] does the source give for CC(C)N(C(=O)SCC(Cl)=C(Cl)Cl)C(C)C [Tri-allate] here?
A: 4.25 mg/kg-day

Q: And the NOAEL [5, 17]?
A: 1.27 mg/kg-day

Q: What about the NOAEL ([6]; duration: 24 months, Liver: Effects + Spleen: Effects) of the same compound?
A: 1.27 mg/kg-day

Q: Which NOAEL ([7]; subchronic, duration: 13 weeks, gavage, M, Sprague-Dawley) does the source give for Cc1cc(N)ccc1N.O=S(=O)(O)O [p-Toluenediamine sulfate] here?
A: 2.5 mg/kg-day

Q: CNN [Methylhydrazine] was tested. Which NOAEL ([7]; developmental, duration: 13 days, gavage, F, Sprague-Dawley, developmental) did it give?
A: 1 mg/kg-day

Q: Which results are given for Cc1ccc([N+](=O)[O-])cc1 [4-Nitrotoluene]?
A: NOEL ([8]; subchronic, diet, F, Fischer 344, Body Weight Changes: decrease + Food Consumption + Hematology: Hgb decrease, RBC decrease, MetHgb increase + Blood Chemistry: TP decrease, …): < 44 mg/kg-day; NOEL ([8]; subchronic, diet, M/F, Fischer 344, Body Weight Changes: decrease + Food Consumption + Hematology: Hgb decrease, RBC decrease, MetHgb increase + Blood Chemistry: TP decrease, …): < 60 mg/kg-day; LOAEL ([7]; subchronic, duration: 13 weeks, diet, M, Fischer 344, Immune): 42 mg/kg-day; LEL ([3]; duration: 1 days, injection, intraperitoneal): 30 mg/kg-day

Q: What does the source list for C#CC(C)(C)NC(=O)c1cc(Cl)cc(Cl)c1 [Propyzamide]?
A: NOEL ([5]; no effects): 7.5 mg/kg-day; NOEL ([3]; Hershberger, duration: 10 days, oral, gavage, Sprague-Dawley, active + Negative + Antiandrogenic + anti-androgenic + two studies / first one doses were high but effects observed on AST wt and delayed …): 40 mg/kg-day; NOEL ([6]; duration: 2 years, None Observed): 7.5 mg/kg-day

Q: How did the LOAEL ([7]; chronic, duration: 5 months, drinking water, M/F, Sprague-Dawley) turn out when O=[N+]([O-])[O-].O=[N+]([O-])[O-].O=[N+]([O-])[O-].[Sm+3] [Samarium nitrate] was run?
A: 0.438 mg/kg-day

Q: CC1(C)CCCCC1(C)C [Tetramethylcyclohexane] was tested. Which NOAEL ([7]; subchronic, duration: 90 days, diet, M/F, Sprague-Dawley, Whole Body Effects) did it give?
A: 3000 mg/kg-day

Q: For CC(=O)CC(C)C [4-Methyl-2-pentanone], which NOAEL [9] is on record?
A: 25 mg/kg-day

Q: And the NOAEL ([10]; duration: 13 weeks, oral, gavage, Kidney: Increased absolute weight in females + Kidney: Increased relative weight in females + Kidney: Increased urinary protein levels in …)?
A: 250 mg/kg-day

Q: And the NOEL ([10]; duration: 90 days, inhalation, intermittent, Kidney: Effects + Liver: Increased weight)?
A: 205 mg/m3

Q: Which LEL [3, 18] does the source give for O=C(c1ccc(O)cc1O)c1ccc(O)cc1O [2,2',4,4'-Tetrahydroxybenzophenone] here?
A: 100 mg/kg-day and 200 mg/kg-day and 230 mg/kg-day

Q: What about the LEL ([3]; duration: 5 days, oral) of the same compound?
A: 100 mg/kg-day and 250 mg/kg-day

Q: What about the LEL ([3]; duration: 90 days, oral, diet) of the same compound?
A: 185 mg/kg-day

Q: What about the LEL [4, 19] of the same compound?
A: 300 mg/kg-day

Q: And the LEL ([4]; duration: 7 days, oral)?
A: 1000 mg/kg-day

Q: How did the NOAEL ([7]; subchronic, duration: 8 weeks, gavage, M/F, Sprague-Dawley) turn out when CCCCCCCCCC [Decane] was run?
A: 1000 mg/kg-day

Q: Which LEL [3, 20] does the source give for O=C(c1ccccc1)c1ccc(O)cc1O [2,4-Dihydroxybenzophenone] here?
A: 500 mg/kg-day

Q: What about the LEL [4, 19] of the same compound?
A: 300 mg/kg-day

Q: What about the LEL ([4]; duration: 7 days, oral) of the same compound?
A: 1000 mg/kg-day

Q: Which NOAEL ([7]; short-term, duration: 4 weeks, gavage, M/F, Crl:CD(SD), respiratory) does the source give for ClC=C(Cl)CCl [1,2,3-Trichloropropene] here?
A: 30 mg/kg-day

Q: What does the source list for c1ccc(Nc2ccc(Nc3ccccc3)cc2)cc1 [N,N'-Diphenyl-p-phenylenediamine]?
A: NOEL ([8]; short-term, duration: 28 days, gavage, Sprague-Dawley): 1000 mg/kg-day; NOAEL ([7]; reproduction developmental, diet, F, Sprague-Dawley): 0.3 mg/kg-day

Q: With [Na+].[O]=[Nb](=[O])[O-] [Sodium niobate (NaNbO3)] as the compound, how does the LOAEL [11] read?
A: 1.55 mg/kg-day

Q: And the NOAEL [11]?
A: 0.155 mg/kg-day

Q: With C#C[C@]1(O)CC[C@H]2[C@@H]3CCc4cc(OC)ccc4[C@H]3CC[C@@]21C [Mestranol] as the compound, how does the LEL [3, 20] read?
A: 0.001 mg/day

Q: And the LEL ([3]; duration: 3 days, oral)?
A: 0.01 mg/kg-day

Q: What about the LEL ([3]; duration: 14 days, oral) of the same compound?
A: 0.001 mg/day

Q: What about the LEL [4, 18] of the same compound?
A: 0.5 µg/0.1 mL

Q: What about the “LEL (fractional dose of pill)” value ([4]; duration: 3 days, oral) of the same compound?
A: 0.001

Q: For CCO [Ethanol], which LOAEL [9] is on record?
A: 319 mg/kg-day

Q: And the NOAEL [9]?
A: 31.9 mg/kg-day

Q: What about the LD50 ([1]; injection, Intraperitoneal, Wistar) of the same compound?
A: 6710 mg/kg and 5100 mg/kg

Q: And the LD50 ([1]; oral, Wistar)?
A: 10600 mg/kg and 7060 mg/kg

Q: And the LOAEL [1, 21]?
A: > 37700 mg/m3

Q: And the NOAEL [1, 21]?
A: ≥ 37700 mg/m3

Q: And the LOAEL [1, 22]?
A: 37700 mg/m3

Q: And the NOAEL [1, 22]?
A: 30100 mg/m3

Q: And the “LOAEL (% diet)” value [1, 23]?
A: 5

Q: And the “NOAEL (% diet)” value [1, 23]?
A: 2

Q: What about the “LOAEL (% diet)” value [1, 24] of the same compound?
A: ≤ 5

Q: And the “NOAEL (% diet)” value [1, 24]?
A: < 5

Q: And the “LOAEL (% diet)” value [1, 25]?
A: > 5

Q: What about the “NOAEL (% diet)” value [1, 25] of the same compound?
A: ≤ 5

Q: What about the LD50 ([12]; injection, Intraperitoneal, Swiss-Webster) of the same compound?
A: 9200 mg/kg

Q: What about the LD50 ([12]; oral, NMRI) of the same compound?
A: 8300 mg/kg

Q: What about the LOAEL ([12]; developmental, oral) of the same compound?
A: > 6400 mg/kg-day

Q: And the NOAEL ([12]; developmental, oral)?
A: ≥ 6400 mg/kg-day

Q: And the “NOAEL (% diet)” value ([12]; reproduction developmental, oral, generation: F0)?
A: 15

Q: And the “LOAEL (% diet)” value [12, 26]?
A: 15

Q: And the “NOAEL (% diet)” value [12, 26]?
A: 10

Q: And the “LOAEL (% diet)” value ([12]; reproduction developmental, oral, generation: F2)?
A: > 15

Q: What about the LOAEL [12, 27] of the same compound?
A: 3600 mg/kg-day

Q: And the NOAEL [12, 27]?
A: 2200 mg/kg-day

Q: Which results are given for O=C1C2(Cl)C3(Cl)C4(Cl)C(Cl)(Cl)C5(Cl)C3(Cl)C1(Cl)C5(Cl)C24Cl (stereo not given) [Kepone]?
A: LOAEL [9]: 0.4 mg/kg-day; NOAEL [9]: 0.08 mg/kg-day; NOAEL ([13]; chronic, duration: 2 years, diet, M/F, Wistar, renal): 0.089 mg/kg-day; NOAEL ([13]; short-term, duration: 10 days, gavage, M, Fischer 344, neurological): 1.25 mg/kg-day; NOAEL ([13]; subchronic, duration: 90 days, diet, M, Sprague-Dawley, neurological, reproductive): 0.26 mg/kg-day; LEL [3, 15]: 10 mg/kg-day; LEL [3, 16]: 0.2 mg/day; LEL [3, 18]: 15 mg/kg-day and 20 mg/kg-day and 30 mg/kg-day; LEL [4, 18]: 1 mg/kg-day

Q: How did the LOAEL ([7]; short-term, duration: 28 days, gavage, M/F, Fischer 344) turn out when Nc1cccc([N+](=O)[O-])c1 [3-Nitroaniline] was run?
A: 15 mg/kg-day

Q: How did the NOAEL ([7]; chronic, duration: 73 weeks, gavage, M, Wistar, Whole Body Effects) turn out when CCN(C=O)CC [Diethylformamide] was run?
A: 1.1 mg/kg-day

Q: Which NOEL ([6]; duration: 1 years, Blood: Altered clinical chemistry parameters + Blood: Increased platelet count + Whole body: Decreased weight) does the source give for CCNc1nc(Cl)nc(NC(C)(C)C#N)n1 [Cyanazine] here?
A: 0.625 mg/kg-day

Q: How did the NOAEL ([7]; chronic, duration: 95 days, diet, M, albino) turn out when Clc1cc(Cl)c(Cl)c(-c2cc(Cl)c(-c3cc(Cl)c(Cl)c(Cl)c3)c(Cl)c2Cl)c1 [Aroclor 5460] was run?
A: 7.13 mg/kg-day
